# Measured values from PMC11203266, “Continuous evolution of compact protein degradation tags regulated by selective molecular glues” (Science (New York, N.Y.), 2024).
# Key:
# Type in all cases: cell-based, human
# HEK293T cells = assay: Global quantitative proteomics, HEK293T; details: 1 µM; for proteins downregulated (in words): 5 hours
# Procedure: (§1) Cells were lysed by addition of lysis buffer (8 M Urea, 50 mM NaCl, 50 mM 4-(2-hydroxyethyl)-1-piperazineethanesulfonic acid (EPPS) pH 8.5, Protease and Phosphatase inhibitors) and homogenization by bead beating (BioSpec) for three repeats of 30 seconds at 2400. Bradford assay was used to determine the final protein concentration in the clarified cell lysate. 50 μg of protein for each sample was reduced, alkylated and precipitated using methanol/chloroform as previously described ([32]) and the resulting washed precipitated protein was allowed to air dry. Precipitated protein was resuspended in 4 M Urea, 50 mM HEPES pH 7.4, followed by dilution to <1 M urea with the addition of 200 mM EPPS, pH 8. Proteins were digested with LysC (1:50; enzyme:protein) and trypsin (1:50; enzyme:protein) overnight at 37 °C. Sample digests were acidified with formic acid to a pH of 2-3 prior to desalting using C18 solid phase extraction plates (SOLA, Thermo Fisher Scientific). Desalted peptides were dried in a vacuum centrifuge and reconstituted in 0.1% formic acid for LC-MS analysis.
# (§2) Data were collected using a TimsTOF Pro2 (Bruker Daltonics, Bremen, Germany) coupled to a nanoElute LC pump (Bruker Daltonics, Bremen, Germany) via a CaptiveSpray nano-electrospray source. Peptides were separated on a reversed-phase C18 column (25 cm x 75 μm ID, […], IonOpticks, Australia) containing an integrated captive spray emitter. Peptides were separated using a 50 min gradient of 2 – 30% buffer B (acetonitrile in 0.1% formic acid) with a flow rate of 250 nL/min and column temperature maintained at 50 °C.
# (§3) DDA was performed in Parallel Accumulation-Serial Fragmentation (PASEF) mode to determine effective ion mobility windows for downstream diaPASEF data collection (Meier et al., 2020). The ddaPASEF parameters included: 100% duty cycle using accumulation and ramp times of 50 ms each, 1 TIMS-MS scan and 10 PASEF ramps per acquisition cycle. The TIMS-MS survey scan was acquired between 100–1700 m/z and 1/k0 of 0.7–1.3 V.s/cm^2. Precursors with 1–5 charges were selected and those that reached an intensity threshold of 20,000 arbitrary units were actively excluded for 0.4 min. The quadrupole isolation width was set to 2 m/z for m/z <700 and 3 m/z for m/z >800, with the m/z between 700–800 m/z being interpolated linearly. The TIMS elution voltages were calibrated linearly with three points (Agilent ESI-L Tuning Mix Ions; 622, 922, 1,222 m/z) to determine the reduced ion mobility coefficients (1/K0). To perform diaPASEF, the precursor distribution in the DDA m/z-ion mobility plane was used to design an acquisition scheme for DIA data collection which included two windows in each 50 ms diaPASEF scan. Data was acquired using sixteen of these 25 Da precursor double window scans (creating 32 windows) which covered the diagonal scan line for doubly and triply charged precursors, with singly charged precursors able to be excluded by their position in the m/z-ion mobility plane. These precursor isolation windows were defined between 400–1200 m/z and 1/k0 of 0.7–1.3 V.s/cm^2.
# (§4) The diaPASEF raw file processing and controlling peptide and protein level false discovery rates, assembling proteins from peptides, and protein quantification from peptides was performed using either targeted, cell line specific spectral libraries generated by searching offline fractionated DDApasef data against a Swissprot human or mouse database (January 2021) or using library free analysis in DIA-NN 1.8 ([85]). Library free mode performs an in-silico digestion of a given protein sequence database alongside deep learning-based predictions to extract the DIA precursor data into a collection of MS2 spectra. The search results are then used to generate a spectral library which is then employed for the targeted analysis of the DIA data searched against a Swissprot human or mouse database (January 2021). […]
# MM.1S cells = assay: Whole-transcriptome RNA-Seq; details: for differentially expressed genes: 1 μM, 48 hrs, fold-change > 2, FDR-corrected P < 0.01
# Procedure: The effect of small molecule treatment on transcriptome-wide RNA expression was evaluated using bulk RNA sequencing of 5 biological replicates per sample. […] 48 hours following treatment, cells were washed with PBS and lysed in RLT buffer (Qiagen) with β-mercaptoethanol. Total RNA from each sample was purified from 2–4×10^5 cells using the RNeasy Mini Kit (Qiagen) with on-column DnaseI digestion and eluted in nuclease-free water. Polyadenylated RNA was sequenced using Smart-seq2 as previously described ([82]) with two changes: 20 ng of total RNA and Maxima Rnase H-minus reverse transcriptase (Thermo Fisher) were used for the initial reverse transcription step. The resulting cDNA libraries were sequenced on an Illumina NextSeq 550 High Output kit with the following run parameters: 37 cycles for read1, 37 cycles for read2, 8 cycles for index1, and 8 cycles for index2.
# Sequencing data were demultiplexed with bcl2fastq and roughly 40 million paired-end reads were obtained per sample. Transcript-level quantification was performed using kallisto ([83]) with the homo sapiens GRCh38 reference transcriptome and with bootstrapping. Differential expression analysis at the gene level was conducted using Deseq2 with batch correction of biological replicates ([84]). To pre-filter low count genes, only genes with at least 10 counts in at least 5 samples were analyzed. Compared between conditions, genes with a transcript abundance fold-change > 2 and with a false discovery rate-corrected P-value < 0.01 were called as differentially expressed.
# MOLT4 cells = assay: Global quantitative proteomics, MOLT4; details: 1 µM; for proteins downregulated (in words): 5 hours, threshold ≥ 2-fold at p ≤ 0.0001
# Procedure: as §1, §2, §3, §4
# [1] = system: HEK293T cells stably expressing SD40–eGFP; assay: Global quantitative proteomics, HEK293T expressing SD40–eGFP; details: 1 µM
# Procedure: To test the versatility of SD40, we generated five stable HEK293T cell lines that exogenously express N- or C-terminal SD40 fusions with Nluc, Fluc, and the kinase activator PRKRA. […] To investigate whether SD40 targets unintended neosubstrates for degradation, we performed global proteomics using HEK293T cells stably expressing SD40–eGFP.
# as §1, §2, §3
# The diaPASEF raw file processing and controlling peptide and protein level false discovery rates, assembling proteins from peptides, and protein quantification from peptides was performed using either targeted, cell line specific spectral libraries generated by searching offline fractionated DDApasef data against a Swissprot human or mouse database (January 2021) or using library free analysis in DIA-NN 1.8 ([85]). […]
# KELLY cells = assay: Global quantitative proteomics, KELLY; details: 1 µM; for proteins downregulated (in words): 5 hours
# Procedure: as §1, §2, §3, §4
# [2] = vs DMSO, 5 hr, HEK293T SD40–eGFP
# [3] = vs DMSO, 24 hr, HEK293T SD40–eGFP
smiles,measurement,setting,value
"Nc1cccc2c1C(=O)N(C1CCC(=O)NC1=O)C2=O (centres unmarked) [pomalidomide, reference compound]",proteins downregulated (in words),HEK293T cells,induced degradation of ZFP91
same,logFC C3 (P01024),"HEK293T cells; vs DMSO, 5 hr, HEK293T",7.85E-01
same,logFC DTWD1 (Q8N5C7),"HEK293T cells; vs DMSO, 5 hr, HEK293T",-1.29E+00
same,logFC EIF5A (P63241),"HEK293T cells; vs DMSO, 5 hr, HEK293T",1.83E-01
same,logFC PKM (P14618),"HEK293T cells; vs DMSO, 5 hr, HEK293T",1.32E-01
same,logFC ZFP91 (Q96JP5),"HEK293T cells; vs DMSO, 5 hr, HEK293T",-2.05E+00
same,differentially expressed genes,MM.1S cells,"1,426 genes"
same,proteins downregulated (in words),MOLT4 cells,significant downregulation of the previously identified neosubstrates IKZF1 ([9]) and ZFP91
same,logFC DYNLT1 (P63172),"MOLT4 cells; vs DMSO, 5 hr, MOLT4",-9.35E-01
same,logFC IKZF1 (Q13422),"MOLT4 cells; vs DMSO, 5 hr, MOLT4",-2.37E+00
same,logFC IKZF3 (Q9UKT9),"MOLT4 cells; vs DMSO, 5 hr, MOLT4",-9.56E-01
same,logFC RAB28 (P51157),"MOLT4 cells; vs DMSO, 5 hr, MOLT4",-1.66E+00
same,logFC ZFP91 (Q96JP5),"MOLT4 cells; vs DMSO, 5 hr, MOLT4",-1.83E+00
same,proteins degraded (in words),[1]; 5 hours,SD40-eGFP was significantly degraded alongside multiple known endogenous neosubstrates of pomalidomide
same,logFC MCFD2 (Q8NI22),[1]; [2],-1.02E+00
same,logFC SD40 (XSD40X; SD40–eGFP),[1]; [2],-4.04E+00
same,logFC SRSF3 (P84103),[1]; [2],-1.12E-01
same,logFC SURF4 (O15260),[1]; [2],2.44E-01
same,logFC ZFP91 (Q96JP5),[1]; [2],-2.03E+00
same,proteins downregulated (in words),KELLY cells,robust downregulation of the developmental transcription factor SALL4 ([32]) and ZFP91
same,logFC DTWD1 (Q8N5C7),"KELLY cells; vs DMSO, 5 hr, KELLY",-1.64E+00
same,logFC GID8 (Q9NWU2),"KELLY cells; vs DMSO, 5 hr, KELLY",-1.75E+00
same,logFC RAB28 (P51157),"KELLY cells; vs DMSO, 5 hr, KELLY",-1.53E+00
same,logFC SALL4 (Q9UJQ4),"KELLY cells; vs DMSO, 5 hr, KELLY",-2.26E+00
same,logFC SSNA1 (O43805),"KELLY cells; vs DMSO, 5 hr, KELLY",-1.42E+00
O=C1CCC(N2C(=O)c3ccc(N4CCOCC4)cc3C2=O)C(=O)N1 (centres unmarked) [PT-179],proteins downregulated (in words),HEK293T cells,did not downregulate any detected proteins
same,logFC EIF5A (P63241),"HEK293T cells; vs DMSO, 5 hr, HEK293T",1.52E-01
same,logFC GAL (P22466),"HEK293T cells; vs DMSO, 5 hr, HEK293T",8.26E-01
same,logFC ITPKC (Q96DU7),"HEK293T cells; vs DMSO, 5 hr, HEK293T",6.63E-01
same,logFC RBM23 (Q86U06),"HEK293T cells; vs DMSO, 5 hr, HEK293T",2.25E-01
same,logFC ROR1 (Q01973),"HEK293T cells; vs DMSO, 5 hr, HEK293T",8.84E-01
same,differentially expressed genes,MM.1S cells,three
same,decrease in the frequency of gene expression perturbation,MM.1S cells; PT-179 vs pomalidomide,475 fold
same,proteins downregulated (in words),MOLT4 cells,did not significantly downregulate any detected proteins
same,logFC ACSL1 (P33121),"MOLT4 cells; vs DMSO, 5 hr, MOLT4",-1.03E+00
same,logFC APOBEC3C (Q9NRW3),"MOLT4 cells; vs DMSO, 5 hr, MOLT4",-8.07E-01
same,logFC ARAP2 (Q8WZ64),"MOLT4 cells; vs DMSO, 5 hr, MOLT4",-9.22E-01
same,logFC NXT1 (Q9UKK6),"MOLT4 cells; vs DMSO, 5 hr, MOLT4",-8.48E-01
same,logFC SNX11 (Q9Y5W9),"MOLT4 cells; vs DMSO, 5 hr, MOLT4",-9.02E-01
same,proteins degraded (in words),"[1]; 5 and 24 hours, ≥ 2-fold at p ≤ 0.0001, ~7,800 detected",SD40–eGFP was the only significantly degraded protein
same,logFC MFSD10 (Q14728),[1]; [2],-5.07E-01
same,logFC RAB18 (Q9NP72),[1]; [2],-1.62E-01
same,logFC RALY (Q9UKM9),[1]; [2],-1.52E-01
same,logFC SD40 (XSD40X; SD40–eGFP),[1]; [2],-4.05E+00
same,logFC SYNCRIP (O60506),[1]; [2],-1.02E-01
same,logFC H2AFV (Q71UI9),[1]; [3],1.94E-01
same,logFC RPS15 (P62841),[1]; [3],1.99E-01
same,logFC SD40 (XSD40X; SD40–eGFP),[1]; [3],-3.53E+00
same,logFC SUMO1P1 (G2XKQ0),[1]; [3],1.61E-01
same,logFC TAGLN3 (Q9UI15),[1]; [3],4.42E-01
same,proteins downregulated (in words),KELLY cells,no significant degradation of detected proteins
same,logFC GLMP (Q8WWB7),"KELLY cells; vs DMSO, 5 hr, KELLY",-1.07E+00
same,logFC KIAA1958 (Q8N8K9),"KELLY cells; vs DMSO, 5 hr, KELLY",-1.94E+00
same,logFC SYT14 (Q8NB59),"KELLY cells; vs DMSO, 5 hr, KELLY",-1.10E+00
same,logFC TIMM8B (Q9Y5J9),"KELLY cells; vs DMSO, 5 hr, KELLY",-1.14E+00
same,logFC TUB (P50607),"KELLY cells; vs DMSO, 5 hr, KELLY",-1.12E+00
